The target of test [1] is T1, PDE 7 (phosphodiesterase VII) (Homo sapiens, UniProt Q13946).
T1 construct: filtrated with 0.2 μm filter to obtain the soluble fraction; endogenous in cells; host or cells: MOLT-4 (ATCC CRL-1582); soluble fraction, HiTrap Q eluate at about 350 mM NaCl
Briefly: PDE 7 inhibiting effect (Biological Test 1; 3H-cAMP hydrolysis by PDE 7 fraction from MOLT-4 cells). The format is biochemical. Conditions: PDE 7 active fraction from MOLT-4 cells; 0.064 μM cAMP, 10 μM rolipram, 2 hours at 25° C. The protocol:
The PDE 7 (phosphodiesterase VII) inhibiting effect of the compounds of the present invention was performed by the following method, which was modified assay method described in Biochemical. Pharmacol. 48(6), 1219-1223 (1994).
(1) The active fraction of PDE 7 (phosphodiesterase VII) was obtained. That is, MOLT-4 (obtainable from ATCC as ATCC No. CRL-1582), which was cell line of human acute lymphoblastic lymphoma T cells, was incubated in RPMI1640 culture medium containing 10% fetal bovine serum to obtain 5×10^8 MOLT-4 cells. The cells were collected by centrifugation and suspended with 10 mL of buffer solution A 125 mM of tris-HCl, 5 mM of 2-mercaptoethnol, 2 mM of benzamidine, 2 mM of EDTA, 0.1 μM of 4-(2-aminoethyl)benzensulfonyl hydrochloride; pH 7.5], then homogenized by Polytron® homogenizer. The homogenate were centrifuged under 25,000×G for 10 minutes at 4° C. The supernatant was separated and thus obtained supernatant was further centrifuged under 100,000×G for 60 minutes at 4° C., and then filtrated with 0.2 μm filter to obtain the soluble fraction.
(2) The obtained soluble fraction was filled in equilibrium HiTrap Q column (5 mL×2) with buffer solution A, and phosphodiesterase fractions were eluted by 300 mL of buffer solution A with linear gradient from 0 to 0.8 M NaCl concentration. 5 ml each of 60 eluents were collected, and each eluents were examined for cyclic AMP metabolic activities of phosphodiesterase. The fraction eluting with about 350 mM NaCl concentration parts, where metabolic activities were not inactivated by 10 μM of rolipram (selective inhibitor for phosphodiesterase IV) and 10 μM of milrinone (selective inhibitor for phosphodiesterase III), were collected as storage solution for using to test PDE 7 inhibiting effect.
(3) The tested compound having desired concentration was reacted in the solution of 20 mM tris-HCl (pH 7.5), 1 mM of MgCl2, 100 μM of EDTA, 330 μg/mL of bovine serum albumin, 4 μg/mL of 5′-nucleotidase, 0.1 μCi of ^3H-cAMP (0.064 μM of cAMP), 10 μM of rolipram in storage solution of PDE 7 for 2 hours at 25° C. After the reaction, suspension of Sephadex®-QAE in 10 mM of HEPES-Na (pH 7.0) was added to the reaction mixture, and the mixture was left at rest for 5 minutes. Further, Sephadex®-QAE was added to the obtained supernatant and the mixture was leaved at rest for 5 minutes, then, the radioactivity of the solution was measured.
(4) IC50 was calculated as 50% inhibiting concentration of the metabolic activities of phosphodiesterase VII of the tested compound.

Test [2] concerns the target PDE 4 (phosphodiesterase IV). Briefly: PDE 4 inhibiting effect (Biological Test 2; 3H-cAMP hydrolysis by PDE 4 fraction from Balb/c mouse liver). Format: biochemical, mice. The conditions noted are these: PDE 4 active fraction from Balb/c mouse liver; 0.064 μM cAMP, 2 hours at 25° C. The method, then: The PDE 4 (phosphodiesterase IV) inhibiting effect of the compounds of the present invention was performed by the following method, which was modified assay method described in Biochemical. Pharmacol. 48(6), 1219-1223 (1994).
(1) The active fraction of PDE 4 (phosphodiesterase IV) was obtained. That is, the livers obtained from three Balb/c mice (male, 12 weeks: obtainable from CLEA Japan, Inc.) were suspended with 30 mL of buffer solution B [20 mM of bis-tris, 5 mM of 2-mercaptoethnol, 2 mM of benzamidine, 2 mM of EDTA, 0.1 mM of 4-(2-aminoethyl)benzensulfonyl hydrochloride, 50 mM of sodium acetate; pH 6.5], then homogenized by Polytron® homogenizer. The homogenate were centrifuged under 25,000×G for 10 minutes at 4° C. The supernatant was separated and thus obtained supernatant was further centrifuged under 100,000×G for 60 minutes at 4° C., and then filtrated with 0.2pm filter to obtain the soluble fraction. […]
(3) The tested compound having desired concentration was reacted in the solution of 20 mM tris-HCl (pH 7.5), […], 100 μM of EDTA, 330 μg/mL of bovine serum albumin, 4 μg/mL of 5′-nucleotidase, 0.1 μCi of ^3H-cAMP (0.064 μM of cAMP), and storage solution of PDE 4 for 2 hours at 25° C. […] Further, Sephadex®-QAE was added to the obtained supernatant and the mixture was left at rest for 5 minutes, then, the radioactivity of the solution was measured. […]

Our source for the IC50 values is patent US7943624B2, “Pyridinylpyrazolopyrimidinone derivatives as PDE 7 inhibitors” (Asubio Pharma Co. Ltd., priority 2003, dated 2011).

Where “and” joins values, the source holds several entries; their conditions need not be identical. Equal entries are not always repeated.

T1 sequence (Q13946 whole entry): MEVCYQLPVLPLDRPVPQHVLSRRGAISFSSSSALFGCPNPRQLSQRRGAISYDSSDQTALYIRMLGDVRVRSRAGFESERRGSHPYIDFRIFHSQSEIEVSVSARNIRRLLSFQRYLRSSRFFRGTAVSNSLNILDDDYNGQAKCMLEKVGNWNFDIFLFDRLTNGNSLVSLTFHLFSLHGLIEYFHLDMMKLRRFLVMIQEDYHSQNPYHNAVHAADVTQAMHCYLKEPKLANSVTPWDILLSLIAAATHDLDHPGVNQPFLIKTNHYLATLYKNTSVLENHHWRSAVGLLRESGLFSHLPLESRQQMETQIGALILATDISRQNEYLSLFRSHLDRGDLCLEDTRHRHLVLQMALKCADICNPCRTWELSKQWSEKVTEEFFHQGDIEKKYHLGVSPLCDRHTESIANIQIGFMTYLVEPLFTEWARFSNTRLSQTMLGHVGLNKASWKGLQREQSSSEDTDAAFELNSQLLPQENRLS

One may read the IC50 as the point on the concentration scale where inhibition reaches its midpoint. Low readings indicate greater potency in that assay, high ones weaker potency in that assay. In test [1], `COc1nc(N2CCC(NC(C)=O)CC2)ccc1-c1nc2c(c(C3CCCCC3)nn2C)c(=O)[nH]1` [Compound 29, N-{1-[5-(3-Cyclohexyl-1-methyl-4-oxo-4,5-dihydro-1H-pyrazolo[3,4-d]-pyrimidin-6-yl)-6-methoxy-2-piridinyl]-4-piperidinyl}acetamide] returned an IC50 of at most 100 nM.

As for `COc1nc(N2CCN(C)CC2)ccc1-c1nc2c(c(C3CCCCC3)nn2C)c(=O)[nH]1` [Compound 20, 3-Cyclohexyl-6-[2-methoxy-6-(4-methyl-1-piperazinyl)-3-pyridinyl]-1-methyl-1,5-dihydro-4H-pyrazolo[3,4-d]pyrimidin-4-one], the IC50 in test [1] is at most 100 nM.

For `CCOc1nc(N2CCC(NC)CC2)ccc1-c1nc2c(C)nn(C3CCCCC3)c2c(=O)[nH]1` [Compound 48, 1-Cyclohexyl-5-{2-ethoxy-6-[4-(methylamino)-1-piperidinyl]-3-pyridinyl}-3-methyl-1,6-dihydro-7H-pyrazolo[4,3-d]pyrimidin-7-one], the IC50 in test [1] is at most 100 nM.

`CCOc1nc(N2CCCN(C)CC2)ccc1-c1nc2c(C)nn(C3CCCCC3)c2c(=O)[nH]1` [Compound 44, 1-Cyclohexyl-5-[2-ethoxy-6-(4-methyl-1,4-diazepan-1-yl)-3-pyridinyl]-3-methyl-1,6-dihydro-7H-pyrazolo[4,3-d]pyrimidin-7-one]: the IC50 in test [1] is at most 100 nM.

Turning to `COc1nc(N2CCOCC2)ccc1-c1nc2c(C)nn(C3CCCCC3)c2c(=O)[nH]1` [Compound 17, 1-Cyclohexyl-5-[2-methoxy-6-(4-morpholinyl)-3-pyridinyl]-3-methyl-1,6-dihydro-7H-pyrazolo[4,3-d]pyrimidin-7-one], the 50% inhibitory concentration (IC50) in test [1] is at most 100 nM.

On to `CNC1CCN(c2ccc(-c3nc4c(c(C5CCCCC5)nn4C)c(=O)[nH]3)c(OC)n2)CC1` [Compound 26, 3-Cyclohexyl-6-{2-methoxy-6-[4-(methylamino)-1-piperidinyl]-3-pyridinyl}-1-methyl-1,5-dihydro-4H-pyrazolo[3,4-d]-pyrimidin-4-one], for which the IC50 is ≤ 100 nM and 2.6 nM in test [1]; 1200 nM in test [2].

`COc1nc(S(=O)(=O)N2CCCN(C)CC2)ccc1-c1nc2c(c(C3CCCCC3)nn2C)c(=O)[nH]1` [Compound 36, 3-Cyclohexyl-6-{2-methoxy-6-[(4-methyl-1,4-diazepan-1-yl)sulfonyl]-3-pyridinyl}-1-methyl-1,5-dihydro-4H-pyrazolo[3,4-d]pyrimidin-4-one]: in test [1], the IC50 is at most 100 nM.

In test [1], `COc1nc(N2CCC(N)CC2)ccc1-c1nc2c(c(C3CCCCC3)nn2C)c(=O)[nH]1` [Compound 28, 6-[6-(4-Amino-1-piperidinyl)-2-methoxy-3-pyridinyl]-3-cyclohexyl-1-methyl-1,5-dihydro-4H-pyrazolo[3,4-d]pyrimidin-4-one] registered an IC50 of at most 100 nM.

`COc1nc(N2CCC(O)CC2)ccc1-c1nc2c(c(C3CCCCC3)nn2C)c(=O)[nH]1` [Compound 25, 3-Cyclohexyl-6-[6-(4-hydroxy-1-piperidinyl)-2-methoxy-3-pyridinyl]-1-methyl-1,5-dihydro-4H-pyrazolo[3,4-d]pyrimidin-4-one]: the IC50 in test [1] was at most 100 nM.

In the case of `CCOc1nc(N2CCC(N(C)C)CC2)ccc1-c1nc2c(C)nn(C3CCCCC3)c2c(=O)[nH]1` [Compound 47, 1-Cyclohexyl-5-{6-[4-(dimethylamino)-1-piperidinyl]-2-ethoxy-3-pyridinyl]-3-methyl-1,6-dihydro-7H-pyrazolo[4,3-d]-pyrimidin-7-one], the IC50 in test [1] was at most 100 nM.

In test [1], `COc1nc(N2CCCN(C)CC2)ccc1-c1nc2c(c(C3CCCCC3)nn2C)c(=O)[nH]1` [Compound 22, 3-Cyclohexyl-6-[2-methoxy-6-(4-methyl-1,4-diazepan-1-yl)-3-pyridinyl]-1-methyl-1.5-dihydro-4H-pyrazolo[3,4-d]pyrimidin-4-one] yielded an IC50 of at most 100 nM.

In test [1], `COc1nc(N2CCC(N(C)C)CC2)ccc1-c1nc2c(c(C3CCCCC3)nn2C)c(=O)[nH]1` [Compound 27, 3-Cyclohexyl-6-{6-[4-(dimethylamino)-1-piperidinyl]-2-methoxy-3-pyridinyl}-1-methyl-1.5-dihydro-4H-pyrazolo[3,4-d]-pyrimidin-4-one] showed an IC50 of at most 100 nM.

The molecule `CCOc1nc(N2CCN(C)CC2)ccc1-c1nc2c(C)nn(C3CCCCC3)c2c(=O)[nH]1` [Compound 43] had an IC50 in test [1] of at most 100 nM.

For `COc1nc(N2CCOCC2)ccc1-c1nc2c(c(C3CCCCC3)nn2C)c(=O)[nH]1` [Compound 21, 3-Cyclohexyl-6-[2-methoxy-6-(4-morpholinyl)-3-pyridinyl]-1-methyl-1,5-dihydro-4H-pyrazolo[3,4-d]pyrimidin-4-one], the IC50 in test [1] is at most 100 nM.

In test [1], `COc1nc(N2CCC(O)CC2)ccc1-c1nc2c(C)nn(C3CCCCC3)c2c(=O)[nH]1` [Compound 37, 1-Cyclohexyl-5-[6-(4-hydroxy-1-piperidinyl)-2-methoxy-3-pyridinyl]-3-methyl-1,6-dihydro-7H-pyrazolo[4,3-d]pyrimidin-7-one] had an IC50 of at most 100 nM.

Regarding `CNC1CCN(c2ccc(-c3nc4c(C)nn(C5CCCCC5)c4c(=O)[nH]3)c(OC)n2)CC1` [Compound 32], the half-inhibitory concentration (IC50) is ≤ 100 nM and 3.2 nM in test [1]; 980 nM in test [2].

In test [1], `COc1nc(N2CCN(C)CC2)ccc1-c1nc2c(C)nn(C3CCCCC3)c2c(=O)[nH]1` [Compound 16, 1-Cyclohexyl-5-[2-methoxy-6-(4-methyl-1-piperazinyl)-3-pyridinyl]-3-methyl-1,6-dihydro-7H-pyrazolo[4,3-d]pyrimidin-7-one] yielded an IC50 of at most 100 nM.

Turning to `COc1nc(N2CCC(N(C)C)CC2)ccc1-c1nc2c(C)nn(C3CCCCC3)c2c(=O)[nH]1` [Compound 33], the IC50 in test [1] is at most 100 nM.

Turning to `COc1nc(N2CCCN(C)CC2)ccc1-c1nc2c(C)nn(C3CCCCC3)c2c(=O)[nH]1` [Compound 18, 1-Cyclohexyl-5-[2-methoxy-6-(4-methyl-1,4-diazepan-1-yl)-3-pyridinyl]-3-meth-1-1,6-dihydro-7H-pyrazolo[4,3-d]pyrimidin-7-one], the IC50 in test [1] was at most 100 nM.

Molecule `CCOc1nc(N2CCC(O)CC2)ccc1-c1nc2c(C)nn(C3CCCCC3)c2c(=O)[nH]1` [Compound 49, 1-Cyclohexyl-5-[2-ethoxy-6-(4-hydroxy-1-piperidinyl)-3-pyridinyl]-3-methyl-1,6-dihydro-7H-pyrazolo[4,3-d]pyrimidin-7-one] showed a half-inhibitory concentration (IC50) in test [1] of at most 100 nM.
